This note sets out measurements from ChEMBL document CHEMBL1255342, “Efficacy of benzoxazinorifamycins in a mouse model of Chlamydia pneumoniae lung infection” (2008).

Format in all cases: functional
Test [1] has as its system Chlamydia pneumoniae. Briefly: Antimicrobial activity against Chlamydia pneumoniae AR39 infected in C57BL/6J mouse at 1 mg/kg, ip assessed as bacterial load measured on day 10 post infection relative to control. To be noted: route intraperitoneal.
The test system of test [2] is Chlamydia pneumoniae. Kind of test: Antimicrobial activity against Chlamydia pneumoniae AR39 infected in C57BL/6J mouse at 3 mg/kg, ip assessed as bacterial load measured on day 10 post infection relative to control. To be noted: route intraperitoneal.
Test [3] has as its system Chlamydia pneumoniae. Briefly: Antimicrobial activity against Chlamydia pneumoniae TW-183 after 72 hrs by twofold dilution method. The note with it: TW-183, 72 h.

In brackets after ≈: the same amount, converted by molar mass. Several values for one entry are separate records, joined by “and”; a condition that tells them apart may be missing. Equal entries are not always repeated.

On to `CO[C@H]1/C=C/O[C@@]2(C)Oc3c(C)c(O)c4c(=O)c(c5oc6cc(N7CCN(CC(C)C)CC7)cc(O)c6nc-5c4c3C2=O)NC(=O)/C(C)=C\C=C\[C@H](C)[C@H](O)[C@@H](C)[C@@H](O)[C@@H](C)[C@H](OC(C)=O)[C@@H]1C` [RIFALAZIL], for which the Efficacy in the test with Chlamydia pneumoniae [1] came to 0.24%; in the test on Chlamydia pneumoniae [2], 1.14%. In addition, 0.25 ng/mL (≈ 0.266 nM) was the least that counted as inhibitory against Chlamydia pneumoniae [3] (MIC).
Taken in the same sequence, the figures for `CO[C@H]1/C=C/O[C@@]2(C)Oc3c(C)c(O)c4c(=O)c(c5oc6cc(N7CCN(CC8CC8)CC7)cc(O)c6nc-5c4c3C2=O)NC(=O)/C(C)=C\C=C\[C@H](C)[C@H](O)[C@@H](C)[C@@H](O)[C@@H](C)[C@H](O)[C@@H]1C` were 1.34%, 15.51% and 0.064 ng/mL (≈ 0.0713 nM).
With `CO[C@H]1/C=C/O[C@@]2(C)Oc3c(C)c(O)c4c(=O)c(c5oc6cc(N7CCN(C)CC7)cc(O)c6nc-5c4c3C2=O)NC(=O)/C(C)=C\C=C\[C@H](C)[C@H](O)[C@@H](C)[C@@H](O)[C@@H](C)[C@H](O)[C@@H]1C`, the Efficacy in the test on Chlamydia pneumoniae [1] (1 mg/kg) is 1.26% and 6.04%; in the test with Chlamydia pneumoniae [2] (3 mg/kg), 0.44% and 0.18%. In addition, inhibition of growth against Chlamydia pneumoniae [3] (MIC) required 0.125 ng/mL (≈ 0.146 nM).
In the case of `CO[C@H]1/C=C/O[C@@]2(C)Oc3c(C)c(O)c4c(=O)c(c5oc6cc(N7CCC(C)(C)N(C)C(C)(C)C7)cc(O)c6nc-5c4c3C2=O)NC(=O)/C(C)=C\C=C\[C@H](C)[C@H](O)[C@@H](C)[C@@H](O)[C@@H](C)[C@H](OC(C)=O)[C@@H]1C`, the results for the Efficacy in the test on Chlamydia pneumoniae [1] and with Chlamydia pneumoniae [2] were 0.03% and less than 0.025%, respectively. Moreover, in the test on Chlamydia pneumoniae [3], the MIC – broadly, the least concentration at which growth counts as inhibited – amounted to 0.064 ng/mL (≈ 0.066 nM).
For the compound `CO[C@H]1/C=C/O[C@@]2(C)Oc3c(C)c(O)c4c(=O)c(c5oc6cc(N7CCC(C)(N(C)C)CC7)cc(O)c6nc-5c4c3C2=O)NC(=O)/C(C)=C\C=C\[C@H](C)[C@H](O)[C@@H](C)[C@@H](O)[C@@H](C)[C@H](OC(C)=O)[C@@H]1C`, the Efficacy in the test on Chlamydia pneumoniae [1] is 0.49%; in the test with Chlamydia pneumoniae [2], 0.56%.
With `CO[C@H]1/C=C/O[C@@]2(C)Oc3c(C)c(O)c4c(=O)c(c5oc6cc(N7CC(N(C)C)C7)cc(O)c6nc-5c4c3C2=O)NC(=O)/C(C)=C\C=C\[C@H](C)[C@H](O)[C@@H](C)[C@@H](O)[C@@H](C)[C@H](OC(C)=O)[C@@H]1C`, the Efficacy is recorded as 0.06% in the test with Chlamydia pneumoniae [1] and 0.025% with Chlamydia pneumoniae [2]. For the same compound, the MIC with Chlamydia pneumoniae [3] was determined as 0.064 ng/mL (≈ 0.0712 nM).
Consider `CO[C@H]1/C=C/O[C@@]2(C)Oc3c(C)c(O)c4c(=O)c(c5oc6cc(N7CC8CCC(C7)N8C)cc(O)c6nc-5c4c3C2=O)NC(=O)/C(C)=C\C=C\[C@H](C)[C@H](O)[C@@H](C)[C@@H](O)[C@@H](C)[C@H](OC(C)=O)[C@@H]1C`, for which the results for the Efficacy with Chlamydia pneumoniae [1] and with Chlamydia pneumoniae [2] were 0.14% and less than 0.025%, respectively. This compound yielded an MIC in the test with Chlamydia pneumoniae [3] of 0.125 ng/mL (≈ 0.135 nM).
